Source: US20180193336A1, “SPRAY DRY FORMULATIONS” (Pulmokine, Inc., priority 2013, published 2018)
pIC50: −log10 of the molar value. ≈ marks a conversion by molar mass, not a printed value. Like-named read-outs stand apart in the source and are kept apart here.

Legend:
[1] = tested on: PDGFAA stimulated phosphorylation of ERK1 and ERK2; assay: PDGFAA stimulated phosphorylation of ERK1 and ERK2 in human fetal lung fibroblasts; format: cell-based; settings: 1 uM; PDGFAA 10 ng/ml
Excerpt: (§1) Data shown are mean±SEM. […] PK10453=structure 2; PK10571=structure 2a. Platelet derived growth factor receptor alpha=PDGFR-alpha=PDGFR-α=PDGF receptor alpha=PDGF alpha receptor. Platelet derived growth factor receptor beta=PDGFR-beta=PDGFRβ=PDGF receptor beta=PDGF beta receptor.

rat MCT+PN model [2] = assay: Telemetry of pulmonary artery pressure in rat MCT+PN model; format: in vivo; settings: rat MCT+PN
Method: Pneumonectomy and implantation of a TRM53P telemetry monitor in the pulmonary artery (Telemetry Research, New Zealand and ADInstruments, Colorado) was carried out in rats. Two weeks after MCT, PK10453 (Structure 2) was administered three times daily for 1 week. […] The two groups underwent 4 min exposures of either the vehicle control or PK10453 (Structure 2). Sampling of PA pressure was performed 5 min before each morning dose in ambulatory animals in room air (estimated atmospheric pressure 716 mm Hg based on elevation of animal facility). […] Telemetry data was obtained for 10 min daily before each morning dose for this protocol.

[3] = Solubility experiments in ethanol/water
Excerpt: To maximize the amount of hydrophobic shell former (Leucine) on the surface, a higher ratio is desired.

[4] = typically; cited from earlier work
[5] = tested on: PDGFBB stimulated AKT phosphorylation; assay: In cell Western, PDGFBB stimulated AKT phosphorylation in human fetal lung fibroblasts; format: cell-based; settings: for IC50 for inhibiting PDGFBB stimulated AKT phosphorylation relative to imatinib: fetal human lung fibroblasts, FIG. 18
Method: HLFs were maintained in subculture at no more than 6 passages in DMEM with 5% FBS and 4 mM Glutamax at 37° C., 5% CO2. HLFs were plated and grown to 70-80% confluence in 96 well plates then serum-starved for 48 hours. […] Antibodies were detected using IRDye 680LT goat anti-mouse IgG and IRDye 800 W goat α-rabbit IgG conjugated antibodies. After washing, the signal was quantified using an Odyssey Infrared Imaging System (LI-COR). Phosphoprotein signal (800 nm) was normalized to total protein signal (700 nm) acquired from each well and experimental duplicates on same plate were averaged and reported.

PDGFRbeta = PDGFRbeta (Homo sapiens, UniProt P09619); settings: FIG. 25
Method: A Z-lyte kinase assay was performed to determine the inhibition of PDGFRalpha and PDGFRbeta mediated phosphorylation by PK10453 (Structure 2). Ten point titration curves were modeled to calculate the IC50 (Invitrogen Select Screen®).

[6] = tested on: PDGFBB stimulated phosphorylation of ERK1 and ERK2; assay: PDGFBB stimulated phosphorylation of ERK1 and ERK2 in human fetal lung fibroblasts; format: cell-based
Excerpt: as §1

rat MCT+PN model [7] = assay: Inhaled PK10571 dry powder in rat MCT+PN model, PA telemetry; format: in vivo
Excerpt: We performed a pre-clinical efficacy study of inhaled PK10571 in the rat MCT+PN model. We used the MCT+PN model, because in this model, neointimal pulmonary arteriole proliferative lesions occur in a manner similar to what is observed in the human disease. In this experiment, drug treatment was started later than in prior studies of PK10453.
In prior studies, PK10453 was started 2 weeks after MCT injection (3 weeks after pneumonectomy). In the PK10571 SDD study, treatment was started 3 weeks after MCT injection (4 weeks after pneumonectomy). It should be noted that pneumonectomized rats given MCT develop severe PAH starting two weeks after the MCT injection. (In MCT only rats, it takes longer for PAH to develop (i.e., 3 weeks)). […] A. PK10453 study time drug treatment started (See Pulm Circ 2014 8(1):82-102). B. PK10571 SDD study time treatment started in MCT+PN model. C. Start time typical for MCT only model. Data acquired via telemetry monitoring of PA pressures in ambulatory rats. (Note: Day 11 in MCT+PN model data not shown).
PK10571 dry powder with leucine and trehalose excipient was administered by nose only inhalation 30 minutes (on average) twice a day to the rats, via a Vilnius Dry Powder Generator connected to a CH Technologies Exposure tower. Estimated average API dose deposited in lung 0.25 mg/kg (calculated from measurement of aerosol concentration and minute ventilation of pneumonectomized rat) with estimated human dose equivalent (HED) 0.04 mg/kg. […] The mode of death of these animals has not been fully characterized but may be related to RV failure. We have noted that although pulmonary pressures rise gradually and progressively over a period of two weeks after MCT injection, in the third week, animals may enter a “crisis” phase and die suddenly. […] This finding confirms the disease modifying potential of PK10571. One animal in the drug treatment group was euthanized for weight loss on day 5 as per our preset criteria.

[8] = tested on: SU5416/hypoxia/normoxia model of PAH; assay: PK10571 in SU5416/hypoxia/normoxia model of PAH; format: in vivo, rat
Method: The SU5416/hypoxia/normoxia model of PAH is well described in the field, is considered to accurately reflect the human disease of PAH and to predict drug response in humans^25. Study animals were administered SU5416 20 mg/kg SQ and placed in a COY Hypoxia chamber at FiO2=10%. Animals studied after 1 week hypoxia; 2 weeks hypoxia/12 days normoxia; 3 weeks hypoxia/12 days normoxia; and 3 weeks hypoxia/5 weeks normoxia. End of study procedures included acquisition of right ventricular pressure volume loops with a Scisense Admittance system. The RV PV loops were acquired on ventilated open chest animals with isoflurane anesthesia and 100% F1O2. In addition a subset of animals had implantation of DSI PAC40 telemetry catheters in the PA. In this subset, PA pressures were monitored continuously in ambulatory animals, and analysis of PA pressures before and after dosing was performed for 7 days of dosing.
PK10571/trehalose/leucine dry powder or Vehicle was administered twice a day via the CH Technologies Exposure System, in the SUGEN5416/2 week hypoxia/normoxia 2 week subgroups.
In the SU5416 model we also examined microfil radiopaque casts of the pulmonary arterial circulation with microCT and 3D reconstruction. The casts were made after flushing the pulmonary circulation of the rats with heparinized saline followed by sodium nitroprusside to maximally vasodilate the pulmonary arterial vessels. Microfil was then injected with a syringe pump at 0.2 ml/min until the proximal PA was engorged and a lattice of microfil was visible in the peripheral lung. The chest was filled with ice saline until the microfil was cured. […] Vehicle treated animal on left. PK10571 treated animal on right. Resolution: 20 microns.

[9] = tested on: rat monocrotaline pneumonectomy model; settings: inhaled twice daily for ten days
Method: Study protocol: male Sprague Dawley rats underwent left pneumonectomy and 10 days later were given monocrotaline 50 mg/kg IP.
Plethysmography was performed with an EMKA 2 chamber body plethysmograph and data acquired with IOX software. Statistical analysis was performed with XLSTAT.

[10] = tested on: phosphorylated PDGF receptor beta (Y751, Y1021); assay: Western blot of phosphorylated PDGF receptor beta in adult human lung fibroblasts; settings: HLFa; 0.01-10 uM, 30 min pre-treatment; 10 ng/mL PDGF BB 7.5 minutes
Method: FIG. 40 PANEL A illustrates pPDGFrBeta (Y751), Beta-Actin, Stripped and reprobed with Total PDGFrBeta, note that 25 ug/lane was loaded, with a 1:500 dilution of pPDGFrBeta(Y751) antibody during incubation.
FIG. 40 PANEL B illustrates pPDGFrBeta (Y1021), Beta-Actin, Stripped and reprobed with Total PDGFrBeta, note that 25 ug/lane was loaded, with a 1:500 dilution of pPDGFrBeta(Y1021) antibody during incubation.

[11] = dry powder with leucine and trehalose, inhaled twice a day, within treatment group

Chain of PDGFRbeta (P09619 600-962 limits assumed): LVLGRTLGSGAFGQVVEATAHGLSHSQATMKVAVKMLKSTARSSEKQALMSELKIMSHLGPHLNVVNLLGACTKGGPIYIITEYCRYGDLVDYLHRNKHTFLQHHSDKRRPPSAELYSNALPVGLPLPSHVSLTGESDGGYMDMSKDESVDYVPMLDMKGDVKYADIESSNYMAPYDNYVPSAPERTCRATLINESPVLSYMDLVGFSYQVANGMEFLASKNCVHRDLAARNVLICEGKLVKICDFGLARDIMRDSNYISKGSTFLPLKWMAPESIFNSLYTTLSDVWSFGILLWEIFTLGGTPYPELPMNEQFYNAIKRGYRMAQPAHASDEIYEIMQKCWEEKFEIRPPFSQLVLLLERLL

## Cc1ccc(NC(=O)c2ccc(CN3CCN(C)CC3)cc2)cc1Nc1nccc(-c2cccnc2)n1 [Imatinib, reference compound]
[1]
  decrease of PDGF AA stimulated ppERK1 and ppERK2 formation: equally effective
Rat MCT+PN model [2]
  efficacy by inhalation in the MCT+PN model: not effective

## CC(C)C[C@H](N)C(=O)O [L-Leucine]
[3]
  concentration obtained with a 2:1 EtOH:H2O mixture: up to 13 mg/ml
[3]; room temperature
  concentration at which precipitated, 1:1 v:v EtOH:H2O solution: 5000 to 10000 µg/mL
[4]
  solubility in EtOH: insoluble
  solubility in water: 25 to 30 mg/mL

## COc1cc(-c2cncc(N[C@@H](C)c3cccc(NC(=O)c4cnc(C#N)nc4)c3)n2)ccc1O [PK10467]
[5]
  IC50 for inhibiting PDGFBB stimulated AKT phosphorylation relative to imatinib: lower IC50 concentration compared to imatinib

## C=CS(=O)(=O)NCc1ccc(C(=O)Nc2cccc([C@H](C)Nc3cncc(-c4ccc(O)c(OC)c4)n3)c2)cc1 [PK10468]
[5]
  IC50 for inhibiting PDGFBB stimulated AKT phosphorylation relative to imatinib: lower IC50 concentration compared to imatinib

## COc1cc(-c2cncc(N[C@@H](C)c3cccc(NC(=O)c4cncc(C)c4)c3)n2)ccc1C [PK10569]
[5]
  IC50 for inhibiting PDGFBB stimulated AKT phosphorylation relative to imatinib: lower IC50 concentration compared to imatinib

## COc1ccc(-c2cncc(N[C@@H](C)c3cccc(NC(=O)c4cncc(C)c4)c3)n2)cc1OC [PK10571]
PDGFRbeta
  potency against PDGFR beta kinase domain relative to imatinib: more potent than imatinib
[5]; Homo sapiens, Fibroblast, FIG. 26, each concentration in duplicate, read-out: IC50, PDGF BB stimulated pAKT in human lung fibroblasts
  pIC50: 7.30
[5]
  IC50 for inhibiting PDGFBB stimulated AKT phosphorylation relative to imatinib: lower IC50 concentration compared to imatinib
[1]
  decrease of PDGF AA stimulated ppERK1 and ppERK2 formation: equally effective
[6]; 1 uM and 10 uM
  decrease of PDGF BB stimulated ppERK1 and ppERK2 relative to imatinib: more effective
[6]; 1 uM, PDGF BB 10 ng/ml
  decrease of PDGFBB stimulated ppERK1 formation: effective
[3]; aqueous with cosolvent or surfactant or cyclodextrin
  solubility: 50 mg/mL (≈ 106 mM)
[3]; organic solvent or mixture
  solubility: 50 mg/mL (≈ 106 mM)
[3]; pH 7
  solubility in water: insoluble
Rat MCT+PN model [7]; dry powder containing leucine and trehalose
  effect on pulmonary artery pressures: effective in lowering pulmonary artery pressures
Rat MCT+PN model [7]; [11]
  reduction of PA pressure, day 8 compared to day 1: 22%
  reduction of PA pressure, day 8 vs. day 3: 35%
Rat MCT+PN model [7]; early stage of treatment, up to day 4
  PA systolic pressure post dose (approximately 1 hour) vs pre-dose: transient decrease
[8]; SU5416, 2 weeks hypoxia, 12 days normoxia, PK10571/trehalose/leucine dry powder twice a day
  RV end systolic pressure compared to vehicle: significant reduction
[8]; on some days, telemetry
  PA systolic pressure after dosing compared to before dosing: significant decrease
[8]; preliminary, compared to vehicle treated animal
  3D microCT of pulmonary arterial vasculature: more third and fourth generation branches
[9]
  airway resistance compared to vehicle: no significant difference
  minute ventilation compared to vehicle: no significant difference
  respiratory rate compared to vehicle: lower
  tidal volume compared to vehicle: significantly improved
[10]
  phosphorylation of PDGF receptor beta: decreases phosphorylation
